{"source": "patent US8440724B2", "about": "“Inhibiting neurotransmitter reuptake” (Mayo Foundation for Medical Education and Research, priority 2008, dated 2013)", "key": {"[1]": {"test_system": "rat 5-HT, NE and DA transport, synaptosomal preparations", "test": "Rat brain synaptosomal transport: rank order of potency", "assay_type": "biochemical", "details": "from Ki values; S = 5HT, N = NE, D = DA", "protocol": "The dissected tissues were separately homogenized in 20 volumes (cortical) or 40 volumes (striatal) of ice-cold, oxygenated HEPES buffer 0.32 M sucrose containing 11 mM glucose (pH 7.4) in a glass Potter-Elvehjem homogenizer with Teflon® pestle (8 strokes, 900 rpm). The homogenates were centrifuged at 1,000×g for 10 minutes. The resulting supernatant was decanted and further centrifuged at 20,000×g for 20 minutes at 4° C. […] The synaptosomal protein concentration was determined by using the BCA assay (Pierce Biotechnology Inc, Rockford, Ill.), according to the manufacturer's instructions. Synaptosomal protein (1.0-2.5 mg) was suspended in 1 mL oxygenated incubation buffer as defined above. Test amine compound was pre-incubated with the synaptosomal preparation for 30 minutes at 37° C. in a shaking water bath (80 oscillations/minute)."}, "mice": {"test_system": "mice", "test": "Locomotor activity in motility chamber, mice", "assay_type": "in vivo, mouse", "details": "15 mg/kg IP, 10 minute intervals for 3 hours, FIG. 11"}, "Male Sprague-Dawley rats": {"test_system": "Male Sprague-Dawley rats", "test": "Forced swim test in rats", "assay_type": "in vivo, rat", "details": "15 mg/kg IP, FIG. 12A", "protocol": "When rats are placed in a cylinder of water from which they cannot escape, they will remain immobile in the water for the majority of the test.\nWater was changed between trials, and the procedure involved a pretest and a 5-minute test separated by 24 hours. During the pretest, rats (adapted to the experimental room for no less than one hour) were placed in the cylinder for 15 minutes. Following this initial exposure, the rats were dried with towels and transferred to a “drying cage” situated under a warming lamp. […] The following day, rats were transferred to the experimental room and acclimated for at least one hour.\nThe rat was considered immobile when floating motionless or making only those movements necessary to keep its head above the surface of the water. Scores for each behavior (swimming or immobility) were expressed as total counts per 5-minute session. Statistical analysis was performed using ANOVA followed by the Tukey test for post-hoc comparisons."}, "hSERT, hNET, hDAT": {"test_system": "hSERT, hNET, hDAT", "test": "Human transporter binding: rank order and range of potency over the three transporters", "details": "from KD values", "text": "The program was modified to calculate the Hill coefficient (nH). Data are presented as geometric mean±S.E.M. of at least three independent experiments. One-component models and two-component models were compared using the root mean square error of each fit and the F test."}, "male C57BL/6J mice": {"test_system": "male C57BL/6J mice", "test": "Tail suspension test (TST) in mice", "assay_type": "in vivo, mouse", "details": "mice, 15 mg/kg IP, FIG. 10A", "protocol": "When mice are suspended by their tail, there is an initial period of agitation, followed by immobility. This test identifies antidepressant compounds, which decrease the duration of immobility.\nTest compounds were prepared by formulating the compounds with a pharmaceutically acceptable carrier such as saline. […] Each mouse was then subjected to the tail-suspension test (TST). Each mouse (n>3) was suspended by its tail 45 cm above the table top with the use of adhesive tape placed 1 cm from the tip of its tail. Behavior was scored every 5 seconds throughout the 6-minute test as either mobile or immobile (FIG. 10A-D) or total duration of immobility during the 6-minute test (FIGS. 10E and 10H). Mice were considered immobile only when hanging passively and completely motionless. Scores for each behavior were expressed as total counts per 6-minute session."}}}
{"smiles": "CN(C)CCCN1c2ccccc2CCc2ccccc21", "note": "[Imipramine, reference compound]", "values": [{"measurement": "Potency (rank order, transport into rat brain synaptosomal preparations)", "setting": "[1]", "value": "N > S > D"}, {"measurement": "Effect on locomotor activity", "setting": "mice", "value": "Only d-amphetamine caused a significant effect on locomotor activity"}, {"measurement": "Immobility in forced swim test vs saline", "setting": "Male Sprague-Dawley rats", "value": "statistically (P<0.04) less immobility"}, {"measurement": "Swimming in forced swim test vs saline", "setting": "Male Sprague-Dawley rats", "value": "statistically (P<0.04) more swimming behavior"}, {"measurement": "Potency (rank-order of potency of binding; S = hSERT, N = hNET, D = hDAT)", "setting": "hSERT, hNET, hDAT", "value": "S > N > D"}, {"measurement": "Mobility in TST (counts per 6-minute session) vs saline", "setting": "male C57BL/6J mice; 30 minutes before testing", "value": "significantly (P<0.02) increased mobility"}, {"measurement": "Immobility in TST (counts per 6-minute session) vs saline", "setting": "male C57BL/6J mice", "value": "significantly (P<0.02) reduced immobility"}]}
